The values that follow come from patent US20250144067A1, “PERSONALIZED STARVATION THERAPY FOR CANCER” (Faeth Therapeutics, Inc., priority 2021, published 2025).

Assay [1] concerns NCI-H292 lung cancer cells. The experiment in a line: FDA drug screening, complete media vs cholesterol-free media without statin (TABLE 1). Format: cell-based, human.
Assay [2] relates to NCI-H292 lung cancer cells. Nature of the assay: FDA drug screening, complete media vs cholesterol-free media with simvastatin (TABLE 2). Format: cell-based, human. The note with it: for Cholesterol-free media + simvastatin (0.04 μM) / Complete Media: NCI-H292 cells.
Where [3] appears, read: Complete minus Cholesterol-free, greater than 0 enhanced anti-cancer activity, about 0 neutral, below 0 antagonist.
The mark [4] stands for this setting: NCI-H292 cells, FDA drug library screen, complete media.
Setting [5] is: FDA drug library screen, cholesterol-free media with simvastatin 0.04 μM.
Setting [6] is: FDA drug library screen, complete media.
The mark [7] stands for this setting: complete media minus cholesterol-free media + simvastatin, >0 enhanced anti-cancer activity, about 0 neutral, <0 antagonist.
Where [8] appears, read: NCI-H292 cells, FDA drug library screen, cholesterol-free media without statin.
The mark [9] stands for this setting: complete media vs cholesterol-free media + simvastatin (0.04 μM), >0 enhanced anti-cancer activity, about 0 neutral, <0 antagonist.
The mark [10] stands for this setting: drug in cholesterol-free media with simvastatin 0.04 μM.
The mark [11] stands for this setting: cholesterol-free media with simvastatin 0.04 μM, FDA drug library screen (TABLE 2).
The mark [12] stands for this setting: complete media, FDA drug library screen (TABLE 2).
Setting [13] is: NCI-H292 cells, cholesterol-free media without statin, FDA drug library screen.
[14] abbreviates: NCI-H292 cells, complete media, FDA drug library screen.
Where [15] appears, read: Complete minus Cholesterol-free, greater than 0 enhanced anti-cancer activity, about 0 neutral, below 0 antagonists.
The mark [16] stands for this setting: NCI-H292 cells in cholesterol-free media without statin.
[17] abbreviates: NCI-H292 cells in complete media.

Structures can show the parent of a compound that is named as a salt.

`CN[C@H]1CC[C@@H](c2ccc(Cl)c(Cl)c2)c2ccccc21` [Sertraline (hydrochloride)]: the Difference in assay [1] (setting [3]) was −0.11; in assay [2] (setting [7]), 0.29. This compound also had a Complete in assay [1] (setting [4]) of 0.9984. The “Cholesterol-free media + simvastatin (0.04 μM)” value in assay [2] (setting [5]) was 0.9083. Further, the “Complete Media” value in assay [2] (setting [6]) was 1.2.

For `Cn1c(=O)cc(N2CCC[C@@H](N)C2)n(Cc2ccccc2C#N)c1=O.O=C(O)c1ccccc1` [Alogliptin (Benzoate)], the Difference in assay [1] (setting [3]) is given as −0.08; in assay [2] (setting [9]), −0.15. Besides, the Cholesterol-free in assay [1] (setting [8]) is 0.8854. In assay [1] (setting [4]), this compound showed a Complete of 0.8074. The “Cholesterol-free media + simvastatin (0.04 μM)” value in assay [2] (setting [5]) is 1.087. The “Complete Media” value in assay [2] (setting [6]) turned out to be 0.9402.

Consider `CC(=O)Nc1c(I)c(NC(C)=O)c(I)c(C(=O)[O-])c1I.[Na+]` [Sodium diatrizoate], for which the Difference is listed as −0.08 in assay [1] (setting [3]) and 0.16 in assay [2] (setting [7]). The compound further came in with a Cholesterol-free in assay [1] (setting [8]) of 1.128. The compound further registered a Complete in assay [1] (setting [4]) of 1.045. For the same compound, in assay [2] (setting [5]), the “Cholesterol-free media + simvastatin (0.04 μM)” value was 0.8717. The “Complete Media” value in assay [2] (setting [6]) worked out at 1.037.

The compound `CNCCc1ccccn1` [Betahistine (dihydrochloride)] had a Cholesterol-free in assay [1] (NCI-H292 cells, cholesterol-free media without statin) of 1.528. The Complete in assay [1] (NCI-H292 cells, complete media) is recorded as 1.139. Besides, the Difference is −0.39 in assay [1] (complete vs cholesterol-free media, greater than 0 enhanced anti-cancer activity, about 0 neutral, below 0 antagonists) and −0.22 in assay [2] (setting [9]). The “Cholesterol-free media + simvastatin (0.04 μM)” value in assay [2] (setting [10]) turned out to be 1.02. Besides, the “Complete Media” value in assay [2] (drug in complete media) was determined as 0.8007.

Turning to `Cl.N=C(N)NCCC[C@H](N)C(=O)O` [L-Arginine (hydrochloride)], the Difference in assay [1] (Complete minus Cholesterol-free, […]) was −0.16; in assay [2] (complete media minus cholesterol-free media + simvastatin (0.04 μM), […]) it was −0.01. In assay [1] (setting [8]), this compound returned a Cholesterol-free of 1.414. In assay [1] (setting [4]), this compound gave a Complete of 1.256. Moreover, the “Cholesterol-free media + simvastatin (0.04 μM)” value in assay [2] (setting [11]) is recorded as 0.9293. Also, the “Complete Media” value in assay [2] (setting [12]) was determined as 0.9241.

As for `NC[C@@H]1O[C@H](O[C@H]2[C@@H](O)[C@H](O[C@@H]3[C@@H](O)[C@H](N)C[C@H](N)[C@H]3O[C@H]3O[C@H](CN)[C@@H](O)[C@H](O)[C@H]3N)O[C@@H]2CO)[C@H](N)[C@@H](O)[C@@H]1O.O=S(=O)(O)O` [Neomycin (sulfate)], the results for the Difference in assay [1] (setting [3]) and in assay [2] (setting [7]) were −0.17 and 0.17, respectively. This compound displayed a Cholesterol-free in assay [1] (setting [8]) of 1.592. The same compound yielded a Complete in assay [1] (setting [4]) of 1.421. The “Cholesterol-free media + simvastatin (0.04 μM)” value in assay [2] (setting [5]) worked out at 0.8549. Further, in assay [2] (setting [6]), the “Complete Media” value was 1.021.

`C[C@H](CCC(=O)O)[C@H]1CC[C@H]2[C@@H]3CC[C@@H]4C[C@H](O)CC[C@]4(C)[C@H]3C[C@H](O)[C@]12C` [Deoxycholic acid sodium salt]: in assay [1] (setting [13]), the Cholesterol-free was 0.8045. The compound further registered a Complete in assay [1] (setting [14]) of 0.9543. For the same compound, the Difference in assay [1] (complete vs cholesterol-free media, >0 enhanced anti-cancer activity, about 0 neutral, <0 antagonist) is reported as 0.15; in assay [2] (setting [9]), −0.17. Besides, the “Cholesterol-free media + simvastatin (0.04 μM)” value in assay [2] (setting [10]) turned out to be 0.8739. In addition, the “Complete Media” value in assay [2] (drug in complete media) was found to be 0.7063.

Consider Abemaciclib (methanesulfonate), for which the Difference is given as −0.03 in assay [1] (Complete minus Cholesterol-free, >0 enhanced anti-cancer activity, about 0 neutral, <0 antagonist) and −0.31 in assay [2] (setting [9]). Moreover, in assay [1] (setting [13]), the Cholesterol-free was 0.6853. The Complete in assay [1] (setting [14]) was determined as 0.6534. Moreover, the “Cholesterol-free media + simvastatin (0.04 μM)” value in assay [2] (FDA library drug in cholesterol-free media with simvastatin 0.04 μM) was determined as 0.9262. Moreover, the “Complete Media” value in assay [2] (FDA library drug in complete media) was determined as 0.6131.

Consider `CC(C)OC(=O)CCC/C=C\C[C@@H]1[C@@H](CC[C@@H](O)CCc2ccccc2)[C@H](O)C[C@@H]1O` [Latanoprost], for which the Difference in assay [1] (setting [15]) is recorded as −0.48; in assay [2] (complete media minus cholesterol-free media + simvastatin (0.04 μM), >0 enhanced anti-cancer activity, about 0 neutral, <0 antagonist), −0.05. Further, the Cholesterol-free in assay [1] (setting [16]) was determined as 1.483. In assay [1] (setting [17]), this compound gave a Complete of 1.005. Further, in assay [2] (setting [11]), the “Cholesterol-free media + simvastatin (0.04 μM)” value was 1.031. Moreover, the “Complete Media” value in assay [2] (setting [12]) was determined as 0.9769.

Take `CN(C)CCOC(=O)C(c1ccccc1)C1(O)CCCC1` (centres unmarked) [Cyclopentolate (hydrochloride)]: the values for the Difference in assay [1] (setting [15]) and in assay [2] (setting [9]) were −0.56 and −0.19, respectively. This compound also came in with a Cholesterol-free in assay [1] (setting [16]) of 1.412. The Complete in assay [1] (setting [17]) amounted to 0.8527. Moreover, the “Cholesterol-free media + simvastatin (0.04 μM)” value in assay [2] (setting [10]) is listed as 1.064. Besides, the “Complete Media” value in assay [2] (drug in complete media) came out at 0.8727.
